Measured values reported in US8486464B2, “Herbal composition for angina pectoris, method to prepare same and uses thereof” (Tasly Pharmaceutical Group Co. Ltd., priority 2000, dated 2013).

Key:
myocardial ischemia = experiment: Dog acute myocardial ischemia: level and area by ECG (Σ-ST, N-ST); assay type: in vivo; conditions: dogs, Dan Shen Pill 2 g/kg, Ditiazem 5 mg/kg
Experimental: (§1) 1.1 Experimental Groups. (1) Blank control group, normal saline 3 ml/kg; (2) DSP group, 2 g natural drug/kg; (3) positive control group, Ditiazem, 5 mg/kg. All the above samples are diluted with normal saline to the same volume of 3 ml/kg and were given to the patient through the duodenum.
(§2) 1.2 Experimental Method. The dogs are anesthetized with pentobarbital sodium. Chests were opened and coronary arterioles and the central part of the dorsal lower branch separated and tied to create an acute myocardial ischemia model. ECGs were recorded and the level of myocardial ischemia (increased section ST, ST) and area of myocardial ischemia (the total increased decimal places in section ST) were calculated. The oxygen content in the coronary artery was recorded. Blood serum creatine kinase (CK), lactate dehydrogenase (LDH), ET, TXB2 and 6-Keto-PGF1 were measured. The oxygen content of the aorta and coronary vein, and blood flow volume in the coronary arteries were measured to calculate myocardial oxygen consumption. Blood oxygen content in the coronary vein was measured to calculate myocardial oxygen content (myocardial oxygen content=(blood oxygen content in arteries-blood oxygen content in coronary veins)×blood flow volume in coronary artery/100).
(§3) The significance of the experimental results was tested by the t-testing method.

myocardial infarction = experiment: Dog myocardial infarction area (N-BT); assay type: in vivo; conditions: dogs; Dan Shen Pill 2 g/kg, Ditiazem 5 mg/kg
Experimental: as §1
The hearts were removed 180 mins after treatment and weighed, cut into slices, and colored with N-BT. The infarction area of each slice (N-BT-uncolorized area) and non-infarction area (N-BT colorized area) were measured. The percentage occupied by the infarction area in the ventricles was calculated and the whole heart was weighted.
as §3

[1] = test system: venous blood oxygen content; experiment: Dog coronary venous blood oxygen content; assay type: in vivo; conditions: dogs, Dan Shen Pill 2 g/kg, Ditiazem 5 mg/kg
Experimental: as §1, §2

ET, TXB2, 6-Keto-PGF1α = experiment: Dog plasma ET, TXB2, 6-Keto-PGF1α; assay type: in vivo; set-up: 6-Keto-PGF1α: unit not given beside the values; conditions: dogs, Dan Shen Pill 2 g/kg, Diltiazem 5 mg/kg
Experimental: as §1, §2

SOD, MDA = experiment: Rat M-IR damage: SOD activity and MDA content in blood serum; assay type: in vivo; conditions: Wistar, 2 hrs after duodenal dosing, DSP 3.0 g/kg, Ditiazem 30 mg/kg
Experimental: (1) Experimental Groups. Control group (Serum taken as normal control), Model group (Normal Saline), Ditiazem group (30 mg/kg), DSP 6.0, 3.0 g/kg group. Each group was diluted to its necessary concentration with 3 ml/kg normal saline through the duodenum.
(2) Experimental Method. Wistar animal is anesthetized by pentobarbital sodium and fixed. Chests and cardial membranes are opened to expose the heart. A hole in the left lower dorsal part of the coronary artery is left for tying. Separate the duodenum, and infuse the tested drugs into it. Take blood from the abdomen after 2 hrs and test the MDA and SOD content in the blood serum.

[2] = test system: coronary heart disease and angina; experiment: Clinical summary: coronary heart disease and angina (Table 1-1); assay type: in vivo, human; conditions: Affiliated Hospital Anhui College of TCM, 46 cases
Experimental: After DSP came onto the market in China, a large-scale clinical research project was conducted in China. Although different prescriptions were used in different research projects, all conclusions are written according to “Method of DSP clinic study.” All clinical and experimental markers were standardized. A simplified summary of the results is shown below in Table 1-1.

[3] = test system: angina caused by coronary heart disease; experiment: Senior group angina, DSP vs Nifedipine
Experimental: • 1.1 Subjects. […] Medications were taken for 30 days. Patients in both groups used Yongbaoling spray under their tongues during acute onset of symptoms. […] Onset frequency, duration, number of times Yongbaoling was sprayed each day, 12-lead ECG, blood pressure, heartbeat, normal blood urea, liver and kidneys function, and lipoproteins in blood and blood viscosity both before and after treatment. • 1.4 Statistical analysis. The results were measured by t statistic testing, calculated by x^2 statistic testing. • 2. Confirmation of results. Onset frequency and duration with a decrease of 80% or more was regarded as obvious efficacy. A decrease of 50% or more was regarded as efficacy. A decrease of 50% or less was regarded as a failure. Changes in NST and ΣST before and after treatment were used to observe ECG improvement. NST represented the low-pressure 12-lead numbers in section ST; ΣST represented the sum of all low pressure numbers in section ST of 12-lead. Results

non-symptomatic M-IR = experiment: Non-symptomatic M-IR, DSP vs Nifedipine; assay type: in vivo, human; conditions: for Efficacy (Number) / Obvious Efficacy (Number): n = 52
Text: 1. Clinical sample. 52 patients were in the treatment group, which included 39 patients with coronary heart disease, and 4 patients with M-IR, and 9 patients with positive results on the exercise test. There were 38 males and 14 females. 52 patients were in the control group, which included 43 patients with coronary heart disease, 6 patients with M-IR, and 3 patients with positive results on the exercise test. There were 34 males and 18 females (Both groups followed the WHO M-IR-Related Heart Disease and Standard established in 1979).
2. Method of treatment. DSP was given to the treatment group, 10 tablets/medication, 3 times/day. […] Both medications lasted for 4 weeks, and all medications related to the treatment of M-IR were stopped.
3. Result standard. Efficient: Change of ECG ST-T was close to normal; Better: Decreased section ST rose 0.5 mm or more, transverse wave T changed to vertical ones, inverted wave changed 25% or more, conducting resistance was improved; Failure: There was no difference in ECGs before and after treatment.

[4] = clinical results after 30 days, cases (%)

## COc1ccc([C@@H]2Sc3ccccc3N(CCN(C)C)C(=O)[C@@H]2OC(C)=O)cc1 [Ditiazem]
Myocardial ischemia; 15 min after dosage
  N-ST: 29.80
  N-ST, changing in percentage (before dosage = 100%): 99.33%
  Σ-ST: 277.80
  Σ-ST, changing in percentage (before dosage = 100%): 91.83%
Myocardial ischemia; 30 min after dosage
  N-ST: 29.60
  N-ST, changing in percentage (before dosage = 100%): 98.67%
  Σ-ST: 226.20
  Σ-ST, changing in percentage (before dosage = 100%): 74.87%
Myocardial ischemia; 45 min after dosage
  N-ST: 29.20
  N-ST, changing in percentage (before dosage = 100%): 97.33%
  Σ-ST: 213.40
  Σ-ST, changing in percentage (before dosage = 100%): 70.59%
Myocardial ischemia; 60 min after dosage
  N-ST: 28.40
  N-ST, changing in percentage (before dosage = 100%): 94.67%
  Σ-ST: 186.20
  Σ-ST, changing in percentage (before dosage = 100%): 61.61%
Myocardial ischemia; 90 min after dosage
  N-ST: 27.00
  N-ST, changing in percentage (before dosage = 100%): 90.00%
  Σ-ST: 175.20
  Σ-ST, changing in percentage (before dosage = 100%): 57.95%
Myocardial ischemia; 120 min after dosage
  N-ST: 26.80
  N-ST, changing in percentage (before dosage = 100%): 89.33%
  Σ-ST: 468.00
  Σ-ST, changing in percentage (before dosage = 100%): 55.60%
Myocardial ischemia; 180 min after dosage
  N-ST: 25.20
  N-ST, changing in percentage (before dosage = 100%): 84.00%
  Σ-ST: 122.80
  Σ-ST, changing in percentage (before dosage = 100%): 40.63%
Myocardial ischemia; before dosage
  N-ST: 30.00
  Σ-ST: 302.80
Myocardial infarction
  Area of Cardiac Chamber: 5377.8 ± 411.2 mm2
  Area of Infarction: 378.98 ± 138.41 mm2
  Infarction Location/Cardiac Chamber: 7.22 ± 2.87
  Infarction Location/Heart: 2.52 ± 1.35
  Myocardial area: 14096.5 ± 3056.4 mm2
[1]; 30 min after dosage
  VO2, changing percentage (before dosage = 100%): 97.70 ± 10.36%
  venous oxygen volume (VO2): 16.08 ± 1.13 ml %
[1]; 60 min after dosage
  VO2, changing percentage (before dosage = 100%): 95.95 ± 8.27%
  venous oxygen volume (VO2): 15.84 ± 1.43 ml %
[1]; 90 min after dosage
  VO2, changing percentage (before dosage = 100%): 96.37 ± 5.54%
  venous oxygen volume (VO2): 15.92 ± 1.29 ml %
[1]; 120 min after dosage
  VO2, changing percentage (before dosage = 100%): 92.15 ± 9.42%
  venous oxygen volume (VO2): 15.20 ± 1.50 ml %
[1]; 180 min after dosage
  VO2, changing percentage (before dosage = 100%): 89.62 ± 11.94%
  venous oxygen volume (VO2): 14.82 ± 2.28 ml %
[1]; after hypoxia (value before dosage)
  venous oxygen volume (VO2): 16.56 ± 1.61 ml %
[1]; after hypoxia, before dosage
  VO2, changing percentage: 111.45 ± 33.86%
[1]; before hypoxia (normal value)
  venous oxygen volume (VO2): 15.44 ± 2.42 ml %
ET, TXB2, 6-Keto-PGF1α; 30 min after dosage
  6-Keto-PGF1α: 1749.4 ± 278.3
  6-Keto-PGF1α, changing in percentage (before dosage = 100%): 118.95 ± 14.47 %
  ET, changing in percentage (before dosage = 100%): 85.14 ± 13.98 %
  TXB2, changing in percentage (before dosage = 100%): 101.14 ± 17.90 %
  blood plasma ET: 47.51 ± 7.39 pg/mL
  blood plasma TXB2: 143.40 ± 28.64 pg/mL
ET, TXB2, 6-Keto-PGF1α; 60 min after dosage
  6-Keto-PGF1α: 1902.6 ± 155.1
  6-Keto-PGF1α, changing in percentage (before dosage = 100%): 131.19 ± 16.98 %
  ET, changing in percentage (before dosage = 100%): 84.06 ± 18.24 %
  TXB2, changing in percentage (before dosage = 100%): 92.58 ± 15.17 %
  blood plasma ET: 46.38 ± 9.02 pg/mL
  blood plasma TXB2: 134.40 ± 46.48 pg/mL
ET, TXB2, 6-Keto-PGF1α; 90 min after dosage
  6-Keto-PGF1α: 1912.4 ± 258.5
  6-Keto-PGF1α, changing in percentage (before dosage = 100%): 132.75 ± 28.52 %
  ET, changing in percentage (before dosage = 100%): 71.69 ± 12.10 %
  TXB2, changing in percentage (before dosage = 100%): 69.72 ± 8.76 %
  blood plasma ET: 39.97 ± 7.95 pg/mL
  blood plasma TXB2: 1093.4 ± 320.9 pg/mL
ET, TXB2, 6-Keto-PGF1α; 120 min after dosage
  6-Keto-PGF1α: 1982.8 ± 574.2
  6-Keto-PGF1α, changing in percentage (before dosage = 100%): 139.39 ± 56.36 %
  ET, changing in percentage (before dosage = 100%): 74.30 ± 17.04 %
  TXB2, changing in percentage (before dosage = 100%): 63.03 ± 14.20 %
  blood plasma ET: 41.42 ± 15.69 pg/mL
  blood plasma TXB2: 1284.1 ± 695.0 pg/mL
ET, TXB2, 6-Keto-PGF1α; 180 min after dosage
  6-Keto-PGF1α: 1705.2 ± 412.2
  6-Keto-PGF1α, changing in percentage (before dosage = 100%): 119.08 ± 39.78%
  ET, changing in percentage (before dosage = 100%): 82.16 ± 14.09 %
  TXB2, changing in percentage (before dosage = 100%): 62.77 ± 14.51 %
  blood plasma ET: 45.74 ± 9.40 pg/mL
  blood plasma TXB2: 1032.7 ± 343.1 pg/mL
ET, TXB2, 6-Keto-PGF1α; after hypoxia before dosage
  6-Keto-PGF1α: 1478.8 ± 218.6
  6-Keto-PGF1α, changing in percentage: 92.3 ± 5.53%
  ET, changing in percentage: 178.30 ± 57.33%
  TXB2, changing in percentage: 101.14 ± 19.90 %
  blood plasma ET: 55.51 ± 3.59 pg/mL
  blood plasma TXB2: 143.40 ± 28.64 pg/mL
ET, TXB2, 6-Keto-PGF1α; before hypoxia (normal value)
  6-Keto-PGF1α: 1597.4 ± 185.3
ET, TXB2, 6-Keto-PGF1α; before hypoxia (normal)
  blood plasma ET: 34.41 ± 9.41 pg/mL
  blood plasma TXB2: 106.40 ± 19.12 pg/mL
SOD, MDA
  MDA, blood serum: 5.29 ± 1.07 (μ mol/L) × 10^−3
  SOD, blood serum: 817.6 ± 115.6 U/ml

## COC(=O)C1=C(C)NC(C)=C(C(=O)OC)C1c1ccccc1[N+](=O)[O-] [Nifedipine]
[2]
  Clinical efficacy %: Nifedipine(32; 75%;
  ECG-Efficacy %: 43.8%)
[3]; 20 patients, 30 days
  Side-effects: felt pain: 3 patients
  Side-effects: slow heartbeat: 1 patients
  Side-effects: swollen ankles: 2 patients
[3]; after treatment
  NST: 3.90 ± 1.13
  Number of Yongbaoling sprays per day: 2.2 ± 0.8
[3]; before treatment
  NST: 4.20 ± 1.25
  Number of Yongbaoling sprays per day: 3.21 ± 1.1
[3]; clinical results after 30 days
  Total efficacy, %: 60%
[3]; [4]
  Efficacy: 4 (20.00) %
  Failure: 8 (40.00) %
  Obvious Efficacy: 8 (40.00) %
non-symptomatic M-IR; 1st week
  Efficacy (%): 25.0%
  Efficacy (Number): 5
  Obvious Efficacy (Number): 8
non-symptomatic M-IR; 2nd week
  Efficacy (%): 30.8%
  Efficacy (Number): 6
  Obvious Efficacy (Number): 10
non-symptomatic M-IR; 3rd week
  Efficacy (%): 34.6%
  Efficacy (Number): 7
  Obvious Efficacy (Number): 11
non-symptomatic M-IR; 4th week
  Efficacy (%): 38.5%
  Efficacy (Number): 8
  Obvious Efficacy (Number): 12
